Data reported in ChEMBL document CHEMBL1150029, “QSAR of HIV inhibitors” (Bioorg Med Chem Lett, 1992).
Where “and” joins values, the source holds several entries; their conditions need not be identical. Equal values may be shown once. Calls of active or inactive are those of the source. The rule behind the calls is not given here.

How the values were obtained:
[1] = tested on: MT4; assay: Tested for 50% protection of MT-4 cells from HIV infection; assay type: functional
[2] = tested on: ATH-8 cell line; assay: Compound was tested for % Protection of ATH8 cells from HIV infection by 2 pM concentration of nucleoside; assay type: functional, Homo sapiens
[3] = tested on: ATH-8 cell line; assay: Compound was tested for % Protection of ATH8 cells from HIV infection by 2 pM concentration of nucleoside; inactive; assay type: functional, cell-based; conditions: Homo sapiens

SMILES	Log 1/C [1]	also measured
Cc1c(Sc2cccc(O)c2)n(COCCO)c(=O)[nH]c1=O	4.09	
Cc1c(Sc2ccccc2[N+](=O)[O-])n(COCCO)c(=O)[nH]c1=O	3.85	
Cc1cccc(Sc2c(C)c(=O)[nH]c(=O)n2COCCO)c1	5.59	
CCCc1c(Sc2ccccc2)n(COCCO)c(=S)[nH]c1=O	5	
Cc1cc(C)cc(Sc2c(C)c(=O)[nH]c(=S)n2COCCO)c1	6.66	
CCc1c(Sc2cc(Cl)cc(Cl)c2)n(COCCO)c(=S)[nH]c1=O	7.37	
Nc1nc(Cl)nc2c1ncn2C1CCC(CO)O1 (stereo unspecified)		Log [2]: 0%
Cc1c(Sc2cccc(C(C)(C)C)c2)n(COCCO)c(=O)[nH]c1=O	4.92	
COCc1cccc(Sc2c(C)c(=O)[nH]c(=O)n2COCCO)c1	5.14	
Cc1cc(C)cc(Sc2c(C(C)C)c(=O)[nH]c(=S)n2COCCO)c1	8.3	
Cc1c(Sc2cccc(I)c2)n(COCCO)c(=O)[nH]c1=O	5	
Cc1ccccc1Sc1c(C)c(=O)[nH]c(=O)n1COCCO	4.15	
CC(C)c1c(Sc2ccccc2)n(COCCO)c(=S)[nH]c1=O	7.23	
Cc1c(Sc2cccc(Cl)c2)n(COCCO)c(=O)[nH]c1=O	4.89	
CC(C)c1c(Sc2ccccc2)n(COCCO)c(=O)[nH]c1=O	7.2	
C=CCc1c(Sc2ccccc2)n(COCCO)c(=O)[nH]c1=O	5.6	

SMILES	Log 1/C [1]	also measured
COC(=O)c1cccc(Sc2c(C)c(=O)[nH]c(=O)n2COCCO)c1	5.1	
Cc1c(Sc2cccc(C(F)(F)F)c2)n(COCCO)c(=O)[nH]c1=O	4.35	
Cc1c(Sc2cccc(Br)c2)n(COCCO)c(=O)[nH]c1=O	5.24	
CCc1c(Sc2cc(Cl)cc(Cl)c2)n(COCCO)c(=O)[nH]c1=O	7.85	
Cc1ccc(Sc2c(C)c(=O)[nH]c(=O)n2COCCO)cc1	3.66	
Cc1c(Sc2cccc(C#N)c2)n(COCCO)c(=O)[nH]c1=O	5	
OCC1CCC(n2cnc3c(S)ncnc32)O1 (stereo unspecified)		Log [3]: inactive
Cc1c(Sc2cccc([N+](=O)[O-])c2)n(COCCO)c(=O)[nH]c1=O	4.47	
CCc1c(Sc2cc(C)cc(C)c2)n(COCCO)c(=S)[nH]c1=O	8.11	
Cc1c(Sc2cccc(F)c2)n(COCCO)c(=O)[nH]c1=O	5.48	
CCCc1c(Sc2ccccc2)n(COCCO)c(=O)[nH]c1=O	5.47	
COc1ccccc1Sc1c(C)c(=O)[nH]c(=O)n1COCCO	4.72	
CCc1c(Sc2ccccc2)n(COCCO)c(=O)[nH]c1=O	6.92 and 6.96	
COc1cccc(Sc2c(C)c(=O)[nH]c(=O)n2COCCO)c1	4.66	
CCc1cccc(Sc2c(C)c(=O)[nH]c(=O)n2COCCO)c1	5.57	
